Calls of active or inactive are those of the source. No cut-off for these calls is given here.
Experiments:
Mus musculus [1] = assay: Protective activity against hearing loss in streptozotocin-induced diabetic ICR mouse using 4 KHz tone bursts at 20 mg/kg, po administered QD measured after 8 weeks by auditory brainstem response test; type: functional, organism-based; design: dose 20 mg/kg
Mus musculus [2] = assay: Antidiabetic activity in streptozotocin-induced diabetic ICR mouse assessed as change in body weight at 10 mg/kg, po administered QD measured 9 weeks after STZ challenge (reference value: 34.15 +/- 1.16 g); type: functional
Mus musculus [3] = assay: Antidiabetic activity in streptozotocin-induced diabetic ICR mouse assessed as change in body weight at 20 mg/kg, po administered QD measured 9 weeks after STZ challenge (reference value: 34.15 +/- 1.16 g); type: functional
Mus musculus [4] = assay: Protective activity against hearing loss in streptozotocin-induced diabetic ICR mouse assessed as decrease in positive A peak latency at 20 mg/kg, po administered QD measured after 8 weeks by auditory middle latency response test; type: functional, organism-based; design: dose 20 mg/kg
Mus musculus [5] = assay: Antidiabetic activity in streptozotocin-induced diabetic ICR mouse assessed as change in body weight at 20 mg/kg, po administered QD measured 1 week after STZ challenge (reference value: 33.25 +/- 0.75 g); type: functional
Mus musculus [6] = assay: Antidiabetic activity in streptozotocin-induced diabetic ICR mouse assessed as change in blood glucose level at 20 mg/kg, po administered QD measured 1 week after STZ challenge (reference value: 516.33 +/- 46.73 mg/dl); type: functional
Mus musculus [7] = assay: Antidiabetic activity in streptozotocin-induced diabetic ICR mouse assessed as change in blood glucose level at 10 mg/kg, po administered QD measured 1 week after STZ challenge (reference value: 516.33 +/- 46.73 mg/dl); type: functional
Mus musculus [8] = assay: Antidiabetic activity in streptozotocin-induced diabetic ICR mouse assessed as change in blood glucose level at 10 mg/kg, po administered QD measured 9 weeks after STZ challenge (reference value: 529.90 +/- 49.17 mg/dl); type: functional
Mus musculus [9] = assay: Antidiabetic activity in streptozotocin-induced diabetic ICR mouse assessed as change in body weight at 10 mg/kg, po administered QD measured 1 week after STZ challenge (reference value: 33.25 +/- 0.75 g); type: functional
Mus musculus [10] = assay: Protective activity against hearing loss in streptozotocin-induced diabetic ICR mouse using 8 KHz tone bursts at 20 mg/kg, po administered QD measured after 8 weeks by auditory brainstem response test; type: functional, organism-based; design: dose 20 mg/kg
Mus musculus [11] = assay: Antidiabetic activity in streptozotocin-induced diabetic ICR mouse assessed as change in blood glucose level at 20 mg/kg, po administered QD measured 9 weeks after STZ challenge (reference value: 529.90 +/- 49.17 mg/dl); type: functional
Mus musculus [12] = assay: Protective activity against hearing loss in streptozotocin-induced diabetic ICR mouse assessed as increase in negative A peak-positive A peak amplitude at 20 mg/kg, po administered QD measured after 8 weeks by auditory middle latency response test; type: functional, organism-based; design: dose 20 mg/kg
[13] = Lipophilicity, log P of the compound; type: physicochemical; details: octanol/water
Mus musculus [14] = assay: Protective activity against hearing loss in streptozotocin-induced diabetic ICR mouse assessed as increase in signal intensity-to-noise ratio at 20 mg/kg, po administered QD measured after 8 weeks by transient evoked otoacoustic emission test; type: functional, organism-based; design: dose 20 mg/kg
Mus musculus [15] = assay: Protective activity against hearing loss in streptozotocin-induced diabetic ICR mouse assessed as increase in negative A peak-positive A peak amplitude at 10 mg/kg, po administered QD measured after 8 weeks by auditory middle latency response test; type: functional, organism-based; design: dose 10 mg/kg
Mus musculus [16] = assay: Protective activity against hearing loss in streptozotocin-induced diabetic ICR mouse using 4 KHz tone bursts at 10 mg/kg, po administered QD measured after 8 weeks by auditory brainstem response test; type: functional, organism-based; design: dose 10 mg/kg
Mus musculus [17] = assay: Protective activity against hearing loss in streptozotocin-induced diabetic ICR mouse assessed as increase in signal intensity-to-noise ratio at 10 mg/kg, po administered QD measured after 8 weeks by transient evoked otoacoustic emission test; type: functional, organism-based; design: dose 10 mg/kg
Mus musculus [18] = assay: Protective activity against hearing loss in streptozotocin-induced diabetic ICR mouse using 8 KHz tone bursts at 10 mg/kg, po administered QD measured after 8 weeks by auditory brainstem response test; type: functional, organism-based; design: dose 10 mg/kg
Mus musculus [19] = assay: Protective activity against hearing loss in streptozotocin-induced diabetic ICR mouse assessed as decrease in positive A peak latency at 10 mg/kg, po administered QD measured after 8 weeks by auditory middle latency response test; type: functional, organism-based; design: dose 10 mg/kg
[20] = Oral bioavailability in rat; type: ADME, organism-based; details: in vivo

| SMILES | Activity (Mus musculus [1]) | Activity (Mus musculus [2]) [g] | Activity (Mus musculus [3]) [g] | Activity (Mus musculus [4]) | Activity (Mus musculus [5]) [g] | Activity (Mus musculus [6]) [mg/dL] | Activity (Mus musculus [7]) | Activity (Mus musculus [8]) | Activity (Mus musculus [9]) [g] | Activity (Mus musculus [10]) | Activity (Mus musculus [11]) [mg/dL] | Activity (Mus musculus [12]) | logP [13] | Activity (Mus musculus [14]) | Activity (Mus musculus [15]) | Activity (Mus musculus [16]) | Activity (Mus musculus [17]) | Activity (Mus musculus [18]) | Activity (Mus musculus [19]) | bioavailability [20] [%] |
| --- | --- | --- | --- | --- | --- | --- | --- | --- | --- | --- | --- | --- | --- | --- | --- | --- | --- | --- | --- | --- |
| C[C@@H]1CC[C@@]2(OC1)O[C@H]1C[C@H]3[C@@H]4CC=C5C[C@@H](O[C@@H]6O[C@H](CO)[C@@H](O)[C@H](O)[C@H]6O)CC[C@]5(C)[C@H]4CC[C@]3(C)[C@H]1[C@@H]2C [DISOGLUSIDE] | Active | 33.39 | 34.92 | Active | 31.58 | 571.75 | 583.55 mg/dL | >=600 mg/dl | 33.17 | Active | 592.33 | Active | – | – | – | – | – | – | – | – |
| C[C@@H]1CC[C@@]2(OC1)O[C@H]1C[C@H]3[C@@H]4CC=C5C[C@@H](O)CC[C@]5(C)[C@H]4CC[C@]3(C)[C@H]1[C@@H]2C [DISOGENIN] | – | 38.33 | 38.67 | – | 33.67 | 574.17 | >=600 mg/dl | >=600 mg/dl | 32.83 | – | 598 | – | 5.7 | – | – | – | – | – | – | – |
| COCCOCCOCCOCCO[C@H]1CC[C@@]2(C)C(=CC[C@H]3[C@@H]4C[C@@H]5O[C@]6(CC[C@@H](C)CO6)[C@@H](C)[C@@H]5[C@@]4(C)CC[C@@H]32)C1 | Active | 33.72 | 37.6 | Active | 32.55 | 582.8 | 522.18 mg/dL | 565.56 mg/dL | 30.5 | Active | 501.6 | Active | – | Active | Active | Active | Active | Active | Active | – |
| C[C@@H]1CC[C@@]2(OC1)O[C@H]1C[C@H]3[C@@H]4CC=C5C[C@@H](O[C@@H]6O[C@H](CO)[C@@H](O[C@@H]7O[C@@H](C)[C@H](O)[C@@H](O)[C@H]7O)[C@H](O)[C@H]6O[C@@H]6O[C@@H](C)[C@H](O)[C@@H](O)[C@H]6O)CC[C@]5(C)[C@H]4CC[C@]3(C)[C@H]1[C@@H]2C [DIOSCIN] | – | – | – | – | – | – | – | – | – | – | – | – | – | – | – | – | – | – | – | 0.2 |
